Source: PMC12889028, “Discovery and biological evaluation of novel N-aryl-N′-methylbenzodrazides against Schistosoma japonicum in vitro and in vivo” (Microbiology Spectrum, 2025)
Read-outs that look alike come from different tables or passages of the source.

Columns and labels:
[1] = tested on: adult worms of S. japonicum (Chinese strain); assay: microbe, parasite or virus in culture; conditions: for mortality at 100 µM / LC50: Schistosoma japonicum; for LC50: read-out: LC50 (72 h)
Description: S. japonicum cercariae (Chinese strain) were acquired from infected Oncomelania hupensis snails (Wuxi Insect Vector Biology Co., Ltd., China) ([28]). ICR mice (6–8 weeks, 22–25 g; Hunan SJA Laboratory Animal Co., Ltd., China) were percutaneously infected via abdominal exposure to 60 ± 5 cercariae. Adult schistosomes were perfused from the hepatic portal system at 35 dpi using a modified Duvall and DeWitt method ([29]). Animals were housed under controlled conditions (22°C ± 1°C, 12 h light/dark cycle) with ad libitum access to feed and water.
Adult S. japonicum worms isolated from ICR mice were maintained in sterile culture medium (2.0 mL) comprising 77% RPMI 1640 (Lanzhou Bailing Biotech Co., Ltd.; pH 7.5, HEPES-buffered), 20% heat-inactivated fetal bovine serum (Lanzhou Minhai Bio-Engineering Co., Ltd.), and 3% penicillin-streptomycin (100×; 10,000 U/mL penicillin, 10,000 μg/mL streptomycin; New Cell & Molecular Biotech Co., Ltd., China). Incubation was performed at 37°C under 5% CO2. Test compounds were dissolved in DMSO as 0.1 M stock solutions; 2.0 μL aliquots were added to worm-containing media (final concentration: 100 μM in 0.1% DMSO). Negative controls received equivalent volumes of vehicle (0.1% DMSO in RPMI 1640). Parasite viability (motor activity, tegumental integrity, survival) was assessed every 12 h for 72 h using an Olympus CKX53 inverted microscope (n ≥ 3 independent replicates).

[2] = tested on: S. japonicum (Chinese strain); assay: In vivo antischistosomal assay in infected mice (worm burden, worm morphology, liver eggs); parameters: species or system Schistosoma japonicum in ICR mice; conditions: mice, oral 100 mg/kg/day for 5 days; for Number of worms, Adult: adult stage (treatment from 35 dpi, sacrifice 45 dpi); for Worm burden reduction (WBR), Juvenile: juvenile stage (from 9 dpi); for Number of worms, Juvenile: juvenile stage (treatment from 9 dpi, sacrifice 45 dpi)
Description: (§1) Lead compounds 5, 18, and 41 (100 mg/kg) were orally administered once daily for 5 consecutive days to infected mice (n = 6/group) during two therapeutic windows: (i) Juvenile stage: treatment initiated at 9 dpi, terminal sacrifice at 45 dpi; (ii) adult stage: treatment initiated at 35 dpi, terminal sacrifice at 45 dpi. Positive controls received praziquantel (PZQ, 100 mg/kg/day ×5 days); negative controls received PBS (0.3 mL). Mice treated at 9 dpi were euthanized 36 days post-treatment; those treated at 35 dpi were euthanized 10 days post-treatment. Adult worms were perfused from the hepatic portal system and mesenteric veins. Parasite burden was quantified by worm enumeration, and worm burden reduction (WBR) was calculated:
WBR (%)=[1−Mean worm count (treated) / Mean worm count (control)]×100% .

adult S. japonicum worms = assay: SEM examination in vitro of tegumental damage; format: cell-based, Schistosoma japonicum; conditions: 100 μM
Description: Adult S. japonicum worms (male/female) underwent standardized fixation after in vitro exposure to compounds 5, 18, and 41 over a period of 12 h. First, the samples were immersed in 2.5% glutaraldehyde (prepared with 40 mL 0.2 M phosphate-buffered saline [PBS, pH 7.4], 5 mL 50% glutaraldehyde stock, and 55 mL ultrapure water) at 4°C for 24 h. After triple washes in PBS for 5 min each, worms were rinsed with deionized water for 10 min. The next dehydration sequence included ethanol gradient (50%, 70%, 80%, 90%, 100%; 5 min/step) and tert-butanol gradient (50%, 70%, 90%, 100%; 10 min/step). The worms were freeze-dried, directly sputter-covered with a thin gold layer using a Sputter Coater, and imaged using a scanning electron microscope (Quanta 450).

[3] = tested on: HepG2 (human liver cancer) cells; assay: Cytotoxicity MTT assay, HepG2; format: cell-based; conditions: Homo sapiens, HepG2, 48 h incubation
Description: (§2) The cytotoxicity of compounds 5, 18, and 41 against human liver cancer (HepG2) and human breast cancer (MCF-7) cell lines in vitro was evaluated using the MTT assay, with cisplatin as a positive control. Cells were plated into 96-well plates and incubated in 100 μL of Dulbecco’s modified Eagle’s medium for 24 h. Test compounds at specified final concentrations were then added to the culture medium. After 48 h incubation, MTT dye (10 μL, 0.5 mg/mL) was added, and cells were incubated for an additional 4 h at 37°C in 5% CO2. Formazan crystals were dissolved in 100 μL DMSO per well, and absorbance at 570 nm (OD570) was measured using an ELx800 microplate reader (Bio-Tek, Winooski, VT, USA) with background subtraction. Cytotoxicity was expressed as IC50 (the concentration causing 50% reduction in cell growth compared to untreated controls). Experiments were performed in triplicate, with results presented as mean ± standard deviation.

[4] = Serum hepatic/renal function profiling of infected, treated mice; format: in vivo, ICR mice; conditions: for Serum GGT: normal range 1–15 U/L; for Serum TBIL: normal range 1.7–15.4 µM; for Serum BUN: normal range 4.9–10.4 mM; for Serum ALT: normal range 28–132 U/L; for Serum AST: normal range 59–247 U/L
Description: Following maturation, Schistosoma parasites initiate oviposition, with a proportion of eggs migrating via the circulatory system to hepatic tissues. This ectopic deposition induces granuloma formation that subsequently elicits a cascade of immune-mediated pathologies, ultimately compromising hepatic and renal functions in murine models. To evaluate therapeutic efficacy, retro-orbital blood sampling was performed for comprehensive hepatic function profiling, enabling systematic assessment of pharmacological impacts on schistosomiasis-associated organ damage.
as §1, with “calculated: […]” for “calculated:”

Acute oral toxicity = format: in vivo; conditions: ICR, mouse, in vivo, po, single oral dose, healthy ICR mice
Description: (§3) ICR mice (n = 10/group), aged 6 to 8 weeks, received a single oral dose of compounds 5, 18, and 41 (732–2,234 mg/kg). LD50 values were determined by Probit analysis (SPSS 26.0).

healthy mice = assay: Acute oral toxicity; format: in vivo; conditions: single oral dose, healthy ICR mice
Description: as §3

[5] = tested on: MCF-7 (human breast cancer) cells; assay: Cytotoxicity MTT assay, MCF-7; format: cell-based; conditions: Homo sapiens, MCF7, 48 h incubation
Description: as §2

Schistosoma mansoni = tested on: Schistosoma mansoni; parameters: method as in PMID 25583726; conditions: S. mansoni mouse model; cited from earlier work
[6] = 24 h, read-out: Mortality (%) 24 h, 100 μM, 24 h, adult worms in vitro
[7] = 36 h, read-out: Mortality (%) 36 h, 100 μM, 36 h, adult worms in vitro
[8] = 48 h, read-out: Mortality (%) 48 h, 100 μM, 48 h, adult worms in vitro
[9] = 72 h, read-out: Mortality (%) 72 h, 100 μM, 72 h, adult worms in vitro
[10] = infected mice treated in adult stage
[11] = infected mice treated in juvenile stage

CN(NC(=O)c1ccc(Cl)c(Cl)c1)c1ccc(Br)cc1 [Compound 5]
Mortality (%) 72 h ([1]; 100 μM, 72 h, adult worms in vitro): 100% | mortality at 100 µM [1, 6]: 35% | mortality at 100 µM [1, 7]: 65% | mortality at 100 µM [1, 8]: 95% | LC50 ([1]; 72 h): 80.2 ± 1.8 µM | mortality at 100 µM [1, 9]: > 80% | Morphology of worms after treatment in vivo, adult stage ([2]; adult stage): making the males thicker and shorter | Worm burden reduction (WBR), Adult ([2]; adult stage (from 35 dpi), 100 mg/kg/day): 34% | Number of worms, Adult [2]: 29 | Morphology of worms after treatment in vivo, juvenile stage ([2]; juvenile stage): marked stunting of male schistosomes | Worm burden reduction (WBR), Juvenile ([2]; 100 mg/kg/day): 25% | Number of worms, Juvenile [2]: 30 | Tegumental damage (SEM), female adult worms (adult S. japonicum worms; female worms): full-thickness sucker ulceration with stromal collapse, atrophic transformation with coalescing vesicles, and advanced tissue disintegration with tegumental wrinkling | Tegumental damage (SEM), male adult worms (adult S. japonicum worms; male worms): complete spine ablation in gynecophoric canals, suctorial constriction, and muscular layer protrusion through disrupted tegument | IC50 [3]: 23.2 ± 1.43 µM | Serum GGT [4, 10]: 0.73 ± 0.40 U/L | Serum TBIL [4, 10]: 6.70 ± 3.39 µM | Serum BUN [4, 10]: 8.80 ± 0.96 mM | Serum ALT [4, 10]: 313.33 ± 166.21 U/L | Serum AST [4, 10]: 527.33 ± 303.66 U/L | Serum GGT [4, 11]: 0.73 ± 0.06 U/L | Serum TBIL [4, 11]: 7.48 ± 1.64 µM | Serum BUN [4, 11]: 9.83 ± 1.43 mM | Serum ALT [4, 11]: 357.67 ± 176.92 U/L | Serum AST [4, 11]: 602.33 ± 309.33 U/L | Nephrotoxicity ([4]; infected treated mice, judged from BUN): without observable nephrotoxicity | LD50 (Acute oral toxicity): 1400 mg/kg | LD50 (healthy mice): >2,000 mg/kg | LogLD50 (healthy mice): >3.30 | IC50 [5]: 43.8 ± 2.53 µM

O=C(Nc1ccc(Cl)c(Cl)c1)Nc1ccc(Cl)c(Cl)c1 [MMV665852, reference compound]
mortality at 100 µM [1, 6]: 100% | mortality at 100 µM [1, 7]: 100% | mortality at 100 µM [1, 8]: 100% | LC50 ([1]; 72 h): 12.5 ± 2.36 µM | mortality at 100 µM [1, 9]: 100% | Number of worms, Adult [2]: 36 | Worm burden reduction (WBR), Juvenile [2]: 20% | Number of worms, Juvenile [2]: 32 | In vivo antischistosomal efficacy (worm burden reduction) (Schistosoma mansoni): minimal antischistosomal efficacy
